Laboratory results reported in ChEMBL document CHEMBL5154803, “Spermine-Conjugated Short Proline-Rich Lipopeptides as Broad-Spectrum Intracellular Targeting Antibacterial Agents” (J Med Chem, 2022).
In brackets after ≈: the same amount, converted by molar mass. Activity calls are given as the source filed them. The calls are words filed in the database; no cut-off is given here. Where a SMILES comes first, the peptide text is derived from it. The star is where a group is joined. Myristoyl = CCCCCCCCCCCCCC(=O)*; Decanoyl = CCCCCCCCCC(=O)*; Spermine = NCCCNCCCCNCCCN*

How the values were obtained:
Staphylococcus aureus [1] = experiment: Antibacterial activity against Staphylococcus aureus ATCC 25923 assessed as reduction in bacterial growth measured after 18 hrs by broth microdilution method; type: functional
Staphylococcus aureus [2] = experiment: Antibacterial activity against methicillin-resistant Staphylococcus aureus ATCC 33591 assessed as reduction in bacterial growth measured after 18 hrs by broth microdilution method; type: functional
Pseudomonas aeruginosa = experiment: Antibacterial activity against Pseudomonas aeruginosa ATCC BAA-427 assessed as reduction in bacterial growth measured after 18 hrs by broth microdilution method; type: functional
[3] = test system: Staphylococcus epidermidis; experiment: Antibacterial activity against Staphylococcus epidermidis ATCC 12228 assessed as reduction in bacterial growth measured after 18 hrs by broth microdilution method; type: functional
Escherichia coli [4] = experiment: Antibacterial activity against Escherichia coli ATCC 25922 assessed as reduction in bacterial growth measured after 18 hrs by broth microdilution method; type: functional
Staphylococcus aureus [5] = experiment: Antibacterial activity against MDR-methicillin-resistant Staphylococcus aureus ATCC BAA-44 assessed as reduction in bacterial growth measured after 18 hrs by broth microdilution method; type: functional
Acinetobacter baumannii = experiment: Antibacterial activity against Acinetobacter baumannii i ATCC 19606 assessed as reduction in bacterial growth measured after 18 hrs by broth microdilution method; type: functional
[6] = test system: Staphylococcus epidermidis; experiment: Antibacterial activity against methicillin-resistant Staphylococcus epidermidis ATCC 51625 assessed as reduction in bacterial growth measured after 18 hrs by broth microdilution method; type: functional
Cell membrane [7] = experiment: Disruption of bacterial cell membrane in Escherichia coli ATCC 25922 assessed as proportion of bacteria with intact cell membrane at 5X MIC incubated for 1 hr by PI staining based flow cytometric analysis (reference value: 99.3%); type: subcellular
Cell membrane [8] = experiment: Disruption of bacterial cell membrane in Escherichia coli ATCC 25922 assessed as proportion of bacteria with damaged cell membrane at 5X MIC incubated for 1 hr by PI staining based flow cytometric analysis (reference value: 0.7%); type: subcellular
Cell membrane [9] = experiment: Disruption of bacterial cell membrane in Escherichia coli ATCC 25922 at 5XMIC by SEM analysis; type: subcellular
Staphylococcus aureus [10] = experiment: In vivo antibacterial activity against Staphylococcus aureus ATCC 25923 infected in BALB/c mouse model assessed as reduction of bacterial load in spleen at 100 mg/kg, ip administered as single dose measured after 24 hrs by colony counting based analysis; type: functional, organism-based
Staphylococcus aureus [11] = experiment: In vivo antibacterial activity against Staphylococcus aureus ATCC 25923 infected in BALB/c mouse model assessed as reduction of bacterial load in kidney at 100 mg/kg, ip administered as single dose measured after 24 hrs by colony counting based analysis; type: functional, organism-based
Staphylococcus aureus [12] = experiment: In vivo antibacterial activity against Staphylococcus aureus ATCC 25923 infected in BALB/c mouse model assessed as reduction of bacterial load in liver at 100 mg/kg, ip administered as single dose measured after 24 hrs by colony counting based analysis; type: functional, organism-based
[13] = Cytotoxicity against human THP-1 cells assessed as cell viability at 50 uM by MTT assay; type: toxicity, cell-based; conditions: read-out: Activity
Erythrocyte = experiment: Hemolytic activity against human RBC assessed as hemolysis upto 100 uM incubated for 1 hr by ELISA plate reader analysis; type: toxicity, cell-based
Escherichia coli [14] = experiment: Antibacterial activity against Escherichia coli ATCC 25922 assessed as reduction in bacterial growth measured after 18 hrs in presence of 10% v/v human serum in MHB by broth microdilution method; type: functional; conditions: ATCC 25922, Serum

In the case of `CCCCCCCCCC(=O)NCCCNCCCCNCCCN`, the MIC (Staphylococcus aureus [1]) is reported as > 200 µM, the MIC (Staphylococcus aureus [2]) is reported as > 200 µM and the MIC (Pseudomonas aeruginosa) is reported as > 200 µM. For the same compound, the MIC [3] was > 200 µM, the MIC (Escherichia coli [4]) was > 200 µM and the MIC (Staphylococcus aureus [5]) was > 200 µM. For the same compound, the MIC (Acinetobacter baumannii) was > 200 µM and the MIC [6] was > 200 µM.

With `CCCCCCCCCCCC(=O)NCCCNCCCCNCCCN` the MIC (Staphylococcus aureus [1]) was > 200 µM, the MIC (Staphylococcus aureus [2]) was > 200 µM and the MIC (Pseudomonas aeruginosa) was > 200 µM. For the same compound, the MIC [3] was > 200 µM, the MIC (Escherichia coli [4]) was > 200 µM and the MIC (Staphylococcus aureus [5]) was > 200 µM. For the same compound, the MIC (Acinetobacter baumannii) was > 200 µM and the MIC [6] was > 200 µM.

For `CC[C@H](C)[C@H](NC(=O)CN)C(=O)NCC(=O)N[C@@H](C)C(=O)N[C@H](C(=O)N[C@@H](CC(C)C)C(=O)N[C@@H](CCCCN)C(=O)N[C@H](C(=O)N[C@@H](CC(C)C)C(=O)N[C@H](C(=O)N[C@H](C(=O)NCC(=O)N[C@@H](CC(C)C)C(=O)N1CCC[C@H]1C(=O)N[C@@H](C)C(=O)N[C@@H](CC(C)C)C(=O)N[C@H](C(=O)N[C@@H](CO)C(=O)N[C@@H](Cc1c[nH]c2ccccc12)C(=O)N[C@H](C(=O)N[C@@H](CCCCN)C(=O)N[C@@H](CCCNC(=N)N)C(=O)N[C@@H](CCCCN)C(=O)N[C@@H](CCCNC(=N)N)C(=O)N[C@@H](CCC(N)=O)C(=O)N[C@@H](CCC(N)=O)C(N)=O)[C@@H](C)CC)[C@@H](C)CC)[C@@H](C)O)[C@@H](C)O)C(C)C)C(C)C`, the Activity (Cell membrane [7]) was 36%, the Activity (Cell membrane [8]) was 64% and the Activity (Cell membrane [9]) was “Active”.

With `C[C@H]1COc2c(N3CCN(C)CC3)c(F)cc3c(=O)c(C(=O)O)cn1c23` the Activity (Staphylococcus aureus [10]) was “Active”, the Activity (Staphylococcus aureus [11]) was “Active” and the Activity (Staphylococcus aureus [12]) was “Active”.

In the case of `CCCCCCCCCC(=O)N1CCC[C@H]1C(=O)N[C@@H](CCCNC(=N)N)C(=O)N1CCC[C@H]1C(=O)N[C@@H](CCCNC(=N)N)C(=O)N1CCC[C@H]1C(=O)N1CCC[C@H]1C(=O)N[C@@H](CCCNC(=N)N)C(=O)O` (Decanoyl-PRPRPPR-OH), the MIC (Staphylococcus aureus [1]) is reported as > 200 µM, the MIC (Staphylococcus aureus [2]) is reported as > 200 µM and the MIC (Pseudomonas aeruginosa) is reported as > 200 µM. The MIC [3] was > 200 µM, the MIC (Escherichia coli [4]) was > 200 µM and the MIC (Staphylococcus aureus [5]) was > 200 µM. For the same compound, the MIC (Acinetobacter baumannii) was > 200 µM and the MIC [6] was > 200 µM.

In the case of `N=C(N)NCCC[C@H](NC(=O)[C@@H]1CCCN1C(=O)[C@@H]1CCCN1C(=O)[C@H](CCCNC(=N)N)NC(=O)[C@@H]1CCCN1C(=O)[C@H](CCCNC(=N)N)NC(=O)[C@@H]1CCCN1)C(=O)NCCCNCCCCNCCCN` (H-PRPRPPR-Spermine), the MIC (Staphylococcus aureus [1]) is reported as 200 µM (≈ 212 µg/mL), the MIC (Staphylococcus aureus [2]) is reported as > 200 µM and the MIC (Pseudomonas aeruginosa) is reported as > 200 µM. For the same compound, the MIC [3] was > 200 µM, the MIC (Escherichia coli [4]) was > 200 µM and the MIC (Staphylococcus aureus [5]) was > 200 µM. The MIC (Acinetobacter baumannii) was > 200 µM and the MIC [6] was > 200 µM.

Compound `CCCCCCCCCCCCCC(=O)N1CCC[C@H]1C(=O)N[C@@H](CCCNC(=N)N)C(=O)N1CCC[C@H]1C(=O)N[C@@H](CCCNC(=N)N)C(=O)N1CCC[C@H]1C(=O)N1CCC[C@H]1C(=O)N[C@@H](CCCNC(=N)N)C(=O)NCCCNCCCCNCCCN` (Myristoyl-PRPRPPR-Spermine) has an MIC (Staphylococcus aureus [1]) of 3.1 µM (≈ 3.94 µg/mL), an MIC (Staphylococcus aureus [2]) of 1.5 µM (≈ 1.9 µg/mL) and an MIC (Pseudomonas aeruginosa) of 6.2 µM (≈ 7.87 µg/mL). It also gave an MIC [3] of 1.5 µM (≈ 1.9 µg/mL), an MIC (Escherichia coli [4]) of 3.1 µM (≈ 3.94 µg/mL) and a viability at 50 µM [13] of 40%. The Activity (Erythrocyte) was “Toxic”, the MIC (Staphylococcus aureus [5]) was 1.5 µM (≈ 1.9 µg/mL) and the MIC (Escherichia coli [14]) was 3.1 µM. The MIC (Acinetobacter baumannii) was 6.2 µM (≈ 7.87 µg/mL) and the MIC [6] was 1.5 µM (≈ 1.9 µg/mL).

In the case of `CC1(C)S[C@@H]2[C@H](NC(=O)[C@H](N)c3ccccc3)C(=O)N2[C@H]1C(=O)O` [AMPICILLIN], the MIC (Staphylococcus aureus [5]) is reported as 125 µM (≈ 43.7 µg/mL).

Work on `O=C(N[C@H](CO)[C@H](O)c1ccc([N+](=O)[O-])cc1)C(Cl)Cl` [CHLORAMPHENICOL] yielded an MIC (Staphylococcus aureus [5]) of 1000 µM (≈ 323 µg/mL).

Compound `NC[C@@H]1O[C@H](O[C@H]2[C@@H](O)[C@H](O[C@@H]3[C@@H](O)[C@H](N)C[C@H](N)[C@H]3O[C@H]3O[C@H](CN)[C@@H](O)[C@H](O)[C@H]3N)O[C@@H]2CO)[C@H](N)[C@@H](O)[C@@H]1O` [FRAMYCETIN] has an MIC (Staphylococcus aureus [5]) of 125 µM (≈ 76.8 µg/mL).

Compound `CO[C@H]1/C=C/O[C@@]2(C)Oc3c(C)c(O)c4c(O)c(c(/C=N/N5CCN(C)CC5)c(O)c4c3C2=O)NC(=O)/C(C)=C\C=C\[C@H](C)[C@H](O)[C@@H](C)[C@@H](O)[C@@H](C)[C@H](OC(C)=O)[C@@H]1C` [RIFAMPIN] has an MIC (Staphylococcus aureus [5]) of 1.25 µM (≈ 1.03 µg/mL).

In the case of `CN(C)[C@@H]1C(O)=C(C(N)=O)C(=O)[C@@]2(O)C(O)=C3C(=O)c4c(O)cccc4[C@@](C)(O)[C@H]3C[C@@H]12` [TETRACYCLINE], the MIC (Staphylococcus aureus [5]) is reported as 62.5 µM (≈ 27.8 µg/mL).

`CN[C@H](CC(C)C)C(=O)N[C@H]1C(=O)N[C@@H](CC(N)=O)C(=O)N[C@H]2C(=O)N[C@H]3C(=O)N[C@H](C(=O)N[C@H](C(=O)O)c4cc(O)cc(O)c4-c4cc3ccc4O)[C@H](O)c3ccc(c(Cl)c3)Oc3cc2cc(c3O[C@@H]2O[C@H](CO)[C@@H](O)[C@H](O)[C@H]2O[C@H]2C[C@](C)(N)[C@H](O)[C@H](C)O2)Oc2ccc(cc2Cl)[C@H]1O` [VANCOMYCIN] showed an MIC (Staphylococcus aureus [1]) of 0.4 µM (≈ 0.58 µg/mL), an MIC (Staphylococcus aureus [2]) of 0.8 µM (≈ 1.16 µg/mL) and an MIC [3] of 0.4 µM (≈ 0.58 µg/mL). The MIC (Escherichia coli [4]) was 200 µM (≈ 290 µg/mL), the MIC (Staphylococcus aureus [5]) was 0.8 µM (≈ 1.16 µg/mL) and the MIC (Acinetobacter baumannii) was 56.8 µM (≈ 82.3 µg/mL). For the same compound, the MIC [6] was 0.8 µM (≈ 1.16 µg/mL).

Compound GENTAMICIN has an MIC (Staphylococcus aureus [5]) of 2.5 µM.

In the case of H-PRPRPPR-OH, the MIC (Staphylococcus aureus [1]) is reported as > 200 µM, the MIC (Staphylococcus aureus [2]) is reported as > 200 µM and the MIC (Pseudomonas aeruginosa) is reported as > 200 µM. For the same compound, the MIC [3] was > 200 µM, the MIC (Escherichia coli [4]) was > 200 µM and the MIC (Staphylococcus aureus [5]) was > 200 µM. The MIC (Acinetobacter baumannii) was > 200 µM and the MIC [6] was > 200 µM.
